Here are results for two molecules from PMC8596838, “Xylose‐Configured Cyclophellitols as Selective Inhibitors for Glucocerebrosidase” (Chembiochem, 2021).

This assay has as its target T1, GBA (Homo sapiens, UniProt P04062).
T1 construct: HEK293T cells that contain endogenous GBA; endogenous in cells; host or cells: HEK293T (ATCC CRL-3216) overexpressing GBA2 and GBA3
T1 sequence (P04062 40-536): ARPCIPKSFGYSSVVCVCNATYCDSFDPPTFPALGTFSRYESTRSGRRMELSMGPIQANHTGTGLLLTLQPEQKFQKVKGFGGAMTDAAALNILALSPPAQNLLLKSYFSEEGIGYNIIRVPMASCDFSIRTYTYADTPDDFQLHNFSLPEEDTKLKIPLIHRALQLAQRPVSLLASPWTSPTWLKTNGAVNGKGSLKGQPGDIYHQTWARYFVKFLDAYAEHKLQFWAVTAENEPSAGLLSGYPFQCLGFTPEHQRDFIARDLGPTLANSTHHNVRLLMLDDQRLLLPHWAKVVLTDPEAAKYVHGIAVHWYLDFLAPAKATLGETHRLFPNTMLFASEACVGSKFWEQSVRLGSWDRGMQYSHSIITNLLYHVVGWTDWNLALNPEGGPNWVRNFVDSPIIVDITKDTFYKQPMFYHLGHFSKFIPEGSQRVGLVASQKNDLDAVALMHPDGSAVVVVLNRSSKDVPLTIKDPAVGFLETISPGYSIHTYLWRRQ
In words: Inhibition in intact HEK293T cells (24 h), read out by cABPP with ABP 10, GBA. The assay is classed as cell-based. Conditions: for IC50: 24 h treatment, cABPP quantification, n=3. An excerpt: We next examined the activity of 1 and 2 towards the three human β‐D‐glucosidase in intact HEK293T cells. […] It is noted that the GBA‐selectivity of both compounds is much improved in intact cells than in the in vitro system (Figure 2 and Table 1). This is especially true for compound 1, where an impressive 4‐logs of selectivity window is observed.
Figure 5 Inhibitory effect of β‐D‐xylo‐configured cyclophellitol 1 and cyclophellitol aziridine 2 on β‐glucosidases in intact HEK293T cells expressing GBA, GBA2 and GBA3. (A) Representative gel images of cABPP where cells were treated for 24 h with indicated inhibitor. Lysates were then prepared and labeled with fluorescent ABP 10. Fluorescently labeled proteins were visualized after SDS‐PAGE (1 set from n=3 replicates). (B) IC50 curves determined by cABPP labeling results. (C) Apparent IC50 values towards β‐glucosidases in intact HEK293T cells producing GBA, GBA2 and GBA3 were determined by the fluorescence quantification based on cABPP SDS‐PAGE results.
ABP labeling procedure: Glycosidases were labeled with excess fluorescent ABPs at optimum conditions. […] After ABP incubation, proteins were denatured by boiling the samples with 5× Laemmli buffer (50 % (v/v) 1 M Tris‐HCl, pH 6.8, 50 % (v/v) 100 % glycerol, 10 % (w/v) DTT, 10 % (w/v) SDS, 0.01 % (w/v) bromophenol blue) for 5 min at 98 °C, and separated by electrophoresis on 10 % (w/v) SDS‐PAGE gels running continuously at 90 V. Wet slab‐gels were scanned on fluorescence using the Typhoon FLA 9500 (GE Healthcare) at λEX 473 nm and λEM≥510 nm for green fluorescent ABP 8; and at λEX 635 nm and λEM≥665 nm for ABP 6, 9 and 10. ABP‐emitted fluorescence was quantified using ImageQuant software (GE Healthcare, Chicago, IL, USA) and curve‐fitted using Prism 8.0 (GraphPad Software). After fluorescence scanning, SDS‐PAGE gels were stained for total protein with Coomassie G250 and scanned on a ChemiDoc MP imager (Bio‐Rad, Hercules, CA, USA).[25] […]

Broadly, the IC50 is the concentration that gives 50% inhibition. Read a high IC50 as weaker potency in that assay. In the case of `O[C@@H]1[C@@H](O)[C@H](O)C[C@H]2O[C@@H]12` [compound 1, xylo‐cyclophellitol], the IC50 amounted to 5.71 nM. Further, the “selectivity window for GBA in intact cells” value (24 h) stood at 4 logs.

As to `O[C@@H]1[C@@H](O)[C@H](O)C[C@H]2N[C@@H]12` [compound 2, β‐D‐xylo‐Cyclophellitol aziridine], the IC50 came to 42.2 nM.
